Patent US10183015B2, “Heterocyclic compounds and methods of use” (Medivation Technologies LLC, priority 2015, dated 2019)
Where “and” joins values, the source holds several entries; their conditions need not be identical. Identical values can stand only once.

Assays:
Format in all cases: in vivo
IL-6 = assay: Short-term Paigen-diet NASH mouse model: liver IL-6 levels
Procedure: To investigate whether Compound #37 prevents the development of pathology associated with NASH and steatosis in an acute exploratory disease model, a study was conducted using a diet-induced acute liver steatosis model in mice. […]
(§1) After acclimation, 8-week old male C57Bl/6J mice (Charles River) weighing about 25 g were randomized in 4 groups according their body weight and treated once daily around noon by oral gavage with vehicle, or Compound #37 at various for 21 days as follows: Group 1: vehicle-20% (2-hydroxypropyl)-β-cyclodextrin (HP-β-CD) (n=10); Group 2: Compound #37, 5 mg/kg (n=10) Group 3: Compound #37, 20 mg/kg (n=10) Group 4: Compound #37, 40 mg/kg (n=10). During the treatment period, body weight and food intake (measured over 24h) were measured 3 times per week and once a week, respectively. During the acclimation, all mice were fed a standard diet (Special Diets Services RM1 (E), product no. 801492) and tap water ad libitum. After the acclimation period, mice were fed until the end of the experiment with a 60% high fat Paigen diet (60 kcal % fat, 1.25% cholesterol, and 0.5% cholate; D11061901, Research Diet) and tap water ad libitum.
The 60% high fat Paigen diet induced accumulation of liver lipids, inflammation, oxidative stress, and then fibrosis.

SCAP = assay: DIN mouse model: hepatic SCAP gene expression; parameters: key to 2^DDct: expression relative to vehicle group, normalized to 18S; conditions: 20 mg/kg group; for 18S: Gene Expression: SCAP table, 18S reference; for 2^DDct / DDct / Dct / SCAP: Gene Expression: SCAP
Procedure: (§2) Gene expression analysis. Hepatic expression levels of genes involved in lipid metabolism (FAS, SREBP1, ACC1, SCD1), cholesterol metabolism (HMG-CoAR, LDLR), SREBP proteolysis (SCAP, INSIG1), ER stress (PERK), oxidative stress (NRF2), inflammation (MCP-1), and fibrosis (collagen 1α1) were quantified by RTqPCR. Expression level was normalized to 18S gene expression and relative expression to vehicle group was calculated with the […] method.
Male C57Bl/6J mice (8 weeks old) were housed in enriched ventilated cages (31×12.5×12.7 cm) throughout the experimental phase. Animals' cages litters were changed at least once a week. Animal were housed 5 per cage on inverted 12-hour light cycle (at 09:00 am lights off), 22±2° C. and 55±10% relative humidity. The acclimation period was 20 days. During the acclimation period, all mice were fed a standard diet (RM1 (E) 801492, SDS) and tap water ad libitum. After the acclimation period, mice were fed with the DIN diet (60% fat, cholesterol enriched) and fructose-enriched tap water ad libitum until the end of the experiment.
At 6 weeks of diet, mice were 4-hour fasted (09:00 am to 1:00 pm) and blood (150 μl/EDTA) was collected at 01:00 pm by retro-orbital bleeding under isoflurane anesthesia. Mice were then allocated in 2 homogenous groups (n=12/group) according to their plasma levels of ALT (average levels: 685U/L), AST (average levels: 627U/L) and HOMA-IR index (average value: 4.7), into 2 homogenous groups (see values at day 0 in Tables 15A and 15B ALT/AST and Tables 16A and 16B for HOMA-IR). Mice were then treated once daily by oral gavage with vehicle (Group 1) or Compound #37 at 20 mg/kg (Group 2) for 70 days.
Hepatic expression levels of genes involved in lipid (FAS, SREBP1, ACC1, SCD1), cholesterol metabolism (HMG-CoAR, LDLR), in SREBP proteolysis (SCAP, INSIG1), in ER stress (PERK), oxidative stress (NRF2), and inflammation (MCP-1) were not changed. However, expression of collagen 1α1, involved in liver fibrosis, was reduced by 66% in mice treated with Compound #37 (p<0.05 vs. vehicle).

NRF2 = assay: Short-term Paigen-diet NASH mouse model: hepatic NRF2 gene expression (RT-qPCR); parameters: key to ER and oxidative stress gene expression NRF2: Dct: Ct of gene minus Ct of 18S reference; key to ER and oxidative stress gene expression NRF2: 2DDct: expression relative to vehicle group, normalized to 18S (2^-ΔΔCt); conditions: 21 days
Procedure: To investigate whether Compound #37 prevents the development of pathology associated with NASH and steatosis in an acute exploratory disease model, a study was conducted using a diet-induced acute liver steatosis model in mice. As described below, in this study, C57BL/6J mice were initiated on the Paigen diet and simultaneously treated with Compound #37 (5, 20, and 40 mg/kg/day) or vehicle control (20% HPβCD 10 mL/kg/day) by oral gavage for 21 days.
as §1, with “([…])” for “(n=10) Group 3: Compound #37, 20 mg/kg (n=10)”
as §2

CC(C)Cc1cc(-c2nc(-c3ccc(NS(=O)(=O)C(F)(F)F)cc3Cl)cs2)ccn1 [Compound 37, N-(3-chloro-4-(2-(2-isobutylpyridin-4-yl)thiazol-4-yl)phenyl)-1,1,1-trifluoromethanesulfonamide]
IL-6 (pg/mg tissue) (IL-6; 5 mg/kg, 21 days, group mean): 1012 pg/mg tissue | IL-6 (pg/mg tissue) (IL-6; 5 mg/kg, 21 days, individual animals): 1444 pg/mg tissue and 845 pg/mg tissue and 1107 pg/mg tissue and 650 pg/mg tissue and 1305 pg/mg tissue and 957 pg/mg tissue and 770 pg/mg tissue and 1296 pg/mg tissue and 883 pg/mg tissue and 863 pg/mg tissue | IL-6 (pg/mg tissue) (IL-6; 20 mg/kg, 21 days, group mean): 817 pg/mg tissue | IL-6 (pg/mg tissue) (IL-6; 20 mg/kg, 21 days, individual animals): 904 pg/mg tissue and 737 pg/mg tissue and 760 pg/mg tissue and 705 pg/mg tissue and 970 pg/mg tissue and 826 pg/mg tissue | IL-6 (pg/mg tissue) (IL-6; 40 mg/kg, 9 days, group mean): 669 pg/mg tissue | IL-6 (pg/mg tissue) (IL-6; 40 mg/kg, 9 days, individual animals): 1005 pg/mg tissue and 569 pg/mg tissue and 535 pg/mg tissue and 566 pg/mg tissue | 18S (SCAP; individual animal, 20 mg/kg): 12.55 (2×) and 12.84 and 12.43 and 12.35 (2×) and 12.59 and 11.73 and 12.51 and 11.5 and 11.55 | 18S (SCAP; mean, n 11): 12.3 | 2^DDct (SCAP; individual animal, 20 mg/kg): 1.37 and 1.72 (2×) and 0.65 and 0.71 and 0.91 and 1.46 and 1.39 and 0.64 and 0.59 and 1.60 | DDct (SCAP; individual animal, 20 mg/kg): −0.45 and −0.78 (2×) and 0.63 and 0.49 and 0.13 and −0.54 and −0.47 and 0.65 and 0.77 and −0.68 | Dct (SCAP; individual animal, 20 mg/kg): 11.61 and 11.28 (2×) and 12.69 and 12.55 and 12.19 and 11.52 and 11.59 and 12.71 and 12.83 and 11.38 | SCAP (SCAP; individual animal, 20 mg/kg): 24.16 and 23.83 and 25.53 and 24.98 and 24.54 and 24.11 and 23.32 and 23.79 and 24.21 and 24.38 and 23.73 | 2^DDct (SCAP; mean, n 11): 1.16 | DDct (SCAP; mean, n 11): −0.10 | Dct (SCAP; mean, n 11): 12.0 | SCAP (SCAP; mean, n 11): 24.2 | ER and oxidative stress gene expression NRF2: 2DDct (NRF2; 5 mg/kg, group mean, n 10): 0.76 | ER and oxidative stress gene expression NRF2: 18S (NRF2; 5 mg/kg, group mean, n 10): 12.3 | ER and oxidative stress gene expression NRF2: DDct (NRF2; 5 mg/kg, group mean, n 10): 0.57 | ER and oxidative stress gene expression NRF2: Dct (NRF2; 5 mg/kg, group mean, n 10): 11.5 | ER and oxidative stress gene expression NRF2: NRF2 (NRF2; 5 mg/kg, group mean, n 10): 23.8 | ER and oxidative stress gene expression NRF2: 2DDct (NRF2; 5 mg/kg, individual animals): 0.76 and 0.49 and 0.57 and 1.91 and 0.32 and 0.4 and 0.82 and 1.02 and 0.67 and 0.68 | ER and oxidative stress gene expression NRF2: 18S (NRF2; 5 mg/kg, individual animals): 13.46 and 13.11 and 11.61 and 13.35 (2×) and 12.03 and 11.6 and 11.79 and 11.14 and 11.12 | ER and oxidative stress gene expression NRF2: DDct (NRF2; 5 mg/kg, individual animals): 0.4 and 1.02 and 0.81 and −0.93 and 1.66 and 1.32 and 0.29 and −0.03 and 0.58 and 0.56 | ER and oxidative stress gene expression NRF2: Dct (NRF2; 5 mg/kg, individual animals): 11.34 and 11.96 and 11.75 and 10.01 and 12.6 and 12.26 and 11.23 and 10.91 and 11.52 and 11.5 | ER and oxidative stress gene expression NRF2: NRF2 (NRF2; 5 mg/kg, individual animals): 24.8 and 25.07 and 23.36 (2×) and 24.63 and 25.61 and 22.83 and 22.7 and 22.66 and 22.62 | ER and oxidative stress gene expression NRF2: 2DDct (NRF2; 20 mg/kg, group mean, n 6): 1.08 | ER and oxidative stress gene expression NRF2: 18S (NRF2; 20 mg/kg, group mean, n 6): 12.2 | ER and oxidative stress gene expression NRF2: DDct (NRF2; 20 mg/kg, group mean, n 6): 0.03 | ER and oxidative stress gene expression NRF2: Dct (NRF2; 20 mg/kg, group mean, n 6): 11 | ER and oxidative stress gene expression NRF2: NRF2 (NRF2; 20 mg/kg, group mean, n 6): 23.2 | ER and oxidative stress gene expression NRF2: 2DDct (NRF2; 20 mg/kg, individual animals): 0.76 (2×) and 0.91 and 2.23 and 0.65 and 1.13 | ER and oxidative stress gene expression NRF2: 18S (NRF2; 20 mg/kg, individual animals): 12.91 and 12.29 and 12.2 and 13.03 and 11.49 and 11.26 | ER and oxidative stress gene expression NRF2: DDct (NRF2; 20 mg/kg, individual animals): 0.39 and 0.4 and 0.13 and −1.16 and 0.62 and −0.18 | ER and oxidative stress gene expression NRF2: Dct (NRF2; 20 mg/kg, individual animals): 11.33 and 11.34 and 11.07 and 9.78 and 11.56 and 10.76 | ER and oxidative stress gene expression NRF2: NRF2 (NRF2; 20 mg/kg, individual animals): 24.24 and 23.63 and 23.27 and 22.81 and 23.05 and 22.02
